The target of this assay is T1, BSA-MG glycation model (bovine serum albumin + methylglyoxal) (Bos taurus, UniProt P02769).
T1 construct: purchased Merck Marker Pvt; Ltd. (Germany)
Briefly: in vitro BSA-MG glycation model (fluorescence of AGE formation). The class given is biochemical. The settings on record: for activity against the protein glycation (in words): in vitro protein glycation, compared with standard rutin. On the procedure: Bovine serum albumin (BSA) was purchased from Merck Marker Pvt. Ltd. (Germany), rutin and methylglyoxal (MG) (40% aqueous solution) were from Sigma Aldrich (Japan), sodium dihydrogen phosphate (NaH2PO4), disodium hydrogen phosphate (Na2HPO4) and sodium azide (NaN3) were purchased from Scharlau Chemie, S. A. (Spain), while dimethyl sulphoxide (DMSO) was purchased from Fischer Scientific (UK).
The total reaction volume of the assay was 200 μL, having final concentrations of 10 mg/mL BSA, 14 mM methylglyoxal, and 1 mM test compounds. 10 mg/mL solution of BSA and 14 mM methylglyoxal was prepared in 0.1 M phosphate buffer (pH 7.4), containing sodium azide (NaN3) (30 mM) as antimicrobial agent, while 1 mM solutions of test compounds were prepared in the DMSO. Assay was performed in triplicate. Each reaction mixtures were comprised of 50 μL BSA, 50 μL methylglyoxal, 20 μL test compound and 80 μL phosphate buffer (pH 7.4). The reaction mixture was incubated under aseptic conditions at 37° C. for 9 days.
After completion of nine days of incubation, each sample was examined for the development of specific fluorescence (excitation 330 nm; emission 420 nm) against blank on a microtitre plate reader (SpectraMax M2, Molecular Devices, CA, USA). The percent inhibition of AGE formation by the test sample versus control was calculated by using the following formula:
% Inhibition=(1−Fluorescence of test sample/Fluorescence of the control)×100
The IC50 (i.e. the concentration of test samples that inhibit the process of glycation to 50%) was determined by monitoring the effect of various concentrations (ranges from 1000-50 μM) of test compounds. The IC50 values were calculated by using EZ-FIT Enzyme Kinetics Program (Perrella Scientific Inc., Amherst, USA). The antiglycation potential of test compounds was compared with rutin, which was used as standard inhibitor.

The mark [1] stands for this setting: read-out: % inhibition against BSA-MG glycation model, 1 mM test compound, BSA 10 mg/mL, methylglyoxal 14 mM, 37° C., 9 days.
[2] abbreviates: 1 mM test compound, BSA 10 mg/mL, methylglyoxal 14 mM, 37° C., 9 days, read-out: % inhibition against BSA-MG glycation model.
The mark [3] stands for this setting: Antiglycation Activity IC50 ± SEM, BSA 10 mg/mL, methylglyoxal 14 mM, pH 7.4, 37° C., 9 days, test concentrations 1000-50 μM, triplicate, NA = not active.
[4] abbreviates: BSA 10 mg/mL, methylglyoxal 14 mM, pH 7.4, 37° C., 9 days, test concentrations 1000-50 μM, triplicate, NA = not active, read-out: Antiglycation Activity IC50 ± SEM.

Values joined by “and” are separate entries in the source; they are usually repeats but may differ in a detail not shown here. Equal values may be shown once. Read-outs that look alike come from different tables or passages of the source.

T1 sequence (P02769 25-607): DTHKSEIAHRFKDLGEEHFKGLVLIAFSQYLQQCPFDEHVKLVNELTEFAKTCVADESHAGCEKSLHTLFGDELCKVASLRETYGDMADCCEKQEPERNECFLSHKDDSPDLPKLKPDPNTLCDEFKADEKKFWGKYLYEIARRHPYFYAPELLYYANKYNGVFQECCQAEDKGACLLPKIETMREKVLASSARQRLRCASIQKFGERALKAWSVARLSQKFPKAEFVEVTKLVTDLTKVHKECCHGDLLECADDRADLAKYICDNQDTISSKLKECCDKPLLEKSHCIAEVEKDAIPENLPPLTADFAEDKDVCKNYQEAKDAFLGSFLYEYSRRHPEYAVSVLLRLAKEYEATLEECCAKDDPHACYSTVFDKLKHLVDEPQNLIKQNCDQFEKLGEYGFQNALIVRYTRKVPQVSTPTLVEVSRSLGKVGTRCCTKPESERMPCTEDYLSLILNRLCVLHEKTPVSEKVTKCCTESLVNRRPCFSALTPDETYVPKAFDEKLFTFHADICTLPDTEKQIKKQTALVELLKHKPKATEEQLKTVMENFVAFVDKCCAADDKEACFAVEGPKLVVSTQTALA

As to `O=C1Nc2ccccc2/C1=C\c1ccc(Cc2ccccc2)cc1` [Compound 21, 3-[(E)-(4-benzylphenyl)methylidene]-1,3-dihydro-2H-indol-2-one], under setting [1], the inhibition at 1000 µM was below 50%.
In the case of `O=C1Nc2ccccc2/C1=C\c1cc(Cl)ccc1O` [Compound 16, 3-[(E)-(5-chloro-2-hydroxyphenyl)methylidene]-1,3-dihydro-2H-indol-2-one], the inhibition at 1000 µM under setting [1] is below 50%.
Consider `O=C1Nc2ccccc2/C1=C\c1ccc(O)cc1` [Compound 5, 3-[(E)-(4-hydroxyphenyl)methylidene]-1,3-dihydro-2H-indol-2-one], for which the inhibition at 1000 µM under setting [2] is below 50%.
Take `CCOc1cccc(/C=C2/C(=O)Nc3ccccc32)c1O` [Compound 3, 3-[(E)-(3-ethoxy-2-hydroxyphenyl)methylidene]-1,3-dihydro-2H-indol-2-one]: the “activity against the protein glycation (in words)” value (“activity” for short) is given as “potent activity”. Under setting [3], the IC50 (in general, the concentration at which inhibition is half-maximal) was 268 µM and 194 to 455 µM.
Consider `O=C1Nc2ccccc2/C1=C\c1cccc(Cl)c1` [Compound 14, 3-[(E)-(3-chlorophenyl)methylidene]-1,3-dihydro-2H-indol-2-one], for which the “activity” value is reported as “potent activity”. The IC50 under setting [3] is 151 µM and 150 µM.
For `COc1ccccc1/C=C1/C(=O)Nc2ccccc21` [Compound 7, 3-[(E)-(2-methoxyphenyl)methylidene]-1,3-dihydro-2H-indol-2-one], the half-inhibitory concentration (IC50) (bovine, 9 days, pH 7.4) fell in the range of 194 to 455 µM. The inhibition at 1000 µM under setting [1] was below 50%.
In the case of `O=C1Nc2ccccc2/C1=C\c1ccc(F)cc1` [Compound 8, 3-[(E)-(4-fluorophenyl)methylidene]-1,3-dihydro-2H-indol-2-one], the “activity” value was “potent activity”. Moreover, the IC50 under setting [3] was 211 ± 4.1 µM.
For `COc1cccc(/C=C2/C(=O)Nc3ccccc32)c1O` [Compound 11, 3-[(E)-(2-hydroxy-3-methoxyphenyl)methylidene]-1,3-dihydro-2H-indol-2-one], under setting [3], the half-maximal inhibitory concentration (IC50) is 374 µM and 194 to 455 µM.
Still for that read-out and setting: as for `O=C1Nc2ccccc2/C1=C\c1c2ccccc2cc2ccccc12` [Compound 4, 3-[(E)-9-anthrylmethylidene]-1,3-dihydro-2H-indol-2-one], the figure is 456 µM and 194 to 455 µM.
Regarding `O=C1Nc2ccccc2/C1=C\c1cccc([N+](=O)[O-])c1` [Compound 17, 3-[(E)-(3-nitrophenyl)methylidene]-1,3-dihydro-2H-indol-2-one], the inhibition at 1000 µM under setting [1] is below 50%.
On the same count and under the same terms, next, `O=C1Nc2ccccc2/C1=C\c1ccc(Cl)c(Cl)c1` [Compound 12, 3-[(E)-(3,4-dichlorophenyl)methylidene]-1,3-dihydro-2H-indol-2-one]: below 50%.
For `O=C1Nc2ccccc2/C1=C\c1ccc([N+](=O)[O-])cc1` [Compound 15, 3-[(E)-(4-nitrophenyl)methylidene]-1,3-dihydro-2H-indol-2-one], the inhibition at 1000 µM under setting [2] was below 50%.
Regarding `O=C1Nc2ccccc2/C1=C\c1ccccc1O` [Compound 20, 3-[(E)-(2-hydroxyphenyl)methylidene]-1,3-dihydro-2H-indol-2-one], the “activity” value was “potent activity”. For the same compound, under setting [4], the 50% inhibitory concentration (IC50) was 285 µM and 194 to 455 µM.
For `C[C@@H]1O[C@@H](OC[C@H]2O[C@@H](Oc3c(-c4ccc(O)c(O)c4)oc4cc(O)cc(O)c4c3=O)[C@H](O)[C@@H](O)[C@@H]2O)[C@H](O)[C@H](O)[C@H]1O` [Rutin, reference compound], the concentration for half-maximal inhibition (IC50) under setting [4] amounted to 294 µM.
As to `Cc1ccc(O)c(/C=C2/C(=O)Nc3ccccc32)c1` [Compound 13, 3-[(E)-(2-hydroxy-5-methylphenyl)methylidene]-1,3-dihydro-2H-indol-2-one], the “activity” value is “potent activity”. The half-inhibitory concentration (IC50) under setting [3] was 194 µM and 194 to 455 µM.
Consider `CCOc1ccc(/C=C2/C(=O)Nc3ccccc32)cc1` [Compound 6, 3-[(E)-(4-ethoxyphenyl)methylidene]-1,3-dihydro-2H-indol-2-one], for which the inhibition at 1000 µM under setting [2] was below 50%.
Consider `O=C1Nc2ccccc2/C1=C\c1cccc(O)c1` [Compound 1, 3-[(E)-(3-hydroxyphenyl)methylidene]-1,3-dihydro-2H-indol-2-one], for which the “activity” value is recorded as “potent activity”. Further, the half-maximal inhibitory concentration (IC50) under setting [4] was 282 µM and 194 to 455 µM.
Consider `O=C1Nc2ccccc2/C1=C\c1cccc2ccccc12` [Compound 2, 3-[(E)-1-naphthylmethylidene]-1,3-dihydro-2H-indol-2-one], for which, for the setting “bovine, 9 days, pH 7.4”, the half-maximal inhibitory concentration (IC50) is 194 to 455 µM. Besides, the inhibition at 1000 µM under setting [1] was below 50%.
As for `O=C1Nc2ccccc2/C1=C\c1ccccc1F` [Compound 9, 3-[(E)-(2-fluorophenyl)methylidene]-1,3-dihydro-2H-indol-2-one], the inhibition at 1000 µM under setting [1] is below 50%.
Consider `CSc1ccc(/C=C2/C(=O)Nc3ccccc32)cc1` [Compound 10, 3-[(E)-(4-methylsulfanylphenyl)methylidene]-1,3-dihydro-2H-indol-2-one], for which the inhibition at 1000 µM under setting [1] is below 50%.
In the case of `O=C1Nc2ccccc2/C1=C\c1ccc(Cl)cc1Cl` [Compound 18, 3-[(E)-(2,4-dichlorophenyl)methylidene]-1,3-dihydro-2H-indol-2-one], the IC50 under setting [3] was determined as 856.7 ± 2.4 µM.

The values above are taken from US20150038543A1, “ANTI-GLYCATION PROPERTIES OF OXINDOLE DERIVATIVES” (priority 2013, published 2015).
